Assay results: US5231082A, “Cyclic peptide with anti-metastasis activity” (Monsanto Company, priority 1989, dated 1993)
Peptide text beside a SMILES is read from it.

Tests used:
[1] = test system: HT-1080 cells; test: In vitro cell attachment assays; type: cell-based, human
Method: HT-1080 cells from a human fibrosarcoma (Rasheed, S. et al., Cancer (Philadelphia) 33:1027 (1974) are maintained in Dulbecco's modified Eagle's medium (DMEM) supplemented with 10% fetal calf serum. After the cells are grown to 80% confluency, they are washed with 0.02M phosphate buffer, pH 7.4, without CA^+2 and Mg^+2 and detached with a solution of 0.025% trypsin plus 0.025% ethylenediaminetetraacetic acid (EDTA; GIBCO). The cells are then pelleted by low speed centrifugation and resuspended in Eagle's minimal essential medium (EMEM) containing 0.02% bovine serum albumin (BSA, Sigma Chemical Co., St. Louis, Mo.). Cell attachment assays are performed as described in Klebe, R.J. Nature (London) 250:248 (1974), on tissue culture plastic substrates by using 16-mm Falcon tissue culture wells (Fisher Scientific Co., Pittsburg, Pa.) incubated with various peptides or with laminin in lmL of EMEM containing 0.02% BSA for 1 or 2 hours at 37° C. Cells (10^5 in 0.1 mL) are added to the wells, and the solution is incubated for an additional 1 hour at 37° C. in 95% air and 5% CO2. Subsequently, the wells are rinsed 3 times with lmL of phosphate-buffered saline (PBS) to remove unattached cells. Attached cells are trypsinized and counted electronically (Coulter, ZBI). […]

[2] = test system: 67 kd laminin receptor; test: Laminin receptor binding / elution from laminin affinity columns
[3] = test system: B16F10 melanoma cells; test: Lung tumor colonization assay; type: in vivo, mice
Method: B16F10 melanoma cells, obtained from I.J. Fidler, M.D., Anderson Hospital, Houston, TX, are propagated under standard culture conditions. The lung tumor colonization assay is carried out as described in Fidler, I.J., Nature (London) (New Biol.) 242:148 (1973). Peptides are dissolved at 5 mg/mL in PBS and are filter-sterilized. The suspension of B16F10 cells (5×10^5) in 0.1 mL of DMEM is mixed with 0.1 mL of the peptide (or .1 ml PBS in control), incubated for 5 minutes at room temperature, and then injected into the tail vein of syngeneic C57BL/6 female mice (Jackson Labs., Bar Harbor, Me.) at 6 weeks of age. Each treatment and control group consists of eight mice. Three weeks after the injections, the mice are killed and the number of pulmonary tumors on the surface of the lungs counted.

- binding of laminin receptor ([2]; 67 kd laminin receptor): binds the 67 kd laminin receptor
Compound: CC[C@H](C)[C@@H]1NC(=O)[C@H](Cc2ccc(O)cc2)NC(=O)[C@@H](CCCNC(=N)N)NC(=O)[C@H](CO)NC(=O)CNC1=O [cyclic peptide of the invention] (HELM PEPTIDE1{G.S.[dR].Y.I}$PEPTIDE1,PEPTIDE1,1:R1-5:R2$$$V2.0)
- affinity for cell adhesion ([1]; HT-1080 cells, compared with the straight chain peptide, FIG. 1): higher affinity for cell adhesion than the straight chain peptide
- blocking of cell adhesion and laminin-mediated adhesion ([1]; summary statement): blocks cell adhesion, laminin-mediated adhesion
- elution of laminin receptor from laminin affinity columns [2]: elutes the laminin receptor from laminin affinity columns
- in vivo antimetastatic effectiveness (number of pulmonary tumors on the surface of the lungs) ([3]; B16F10 cells mixed with peptide, injected into tail vein of C57BL/6 female mice, counted three weeks after injection, compared with linear YIGSR-NH2, FIG. 2): at least twice as effective as linear YIGSR-NH2
- melanoma cell colonization ([3]; summary statement): blocks
